Starred links: 1 amine or outer side, 2 acyl side, 3 side chain; linkers in the order of their positions; H or OH if unused. Non-standard residues stand in square brackets, D forms with d. Residues, ends and D or L forms follow the SMILES beside them. Phe(ψ(S)CH(OH)CH2N)Pro = O=C([C@@H]1CCCN1C[C@H](O)[C@H](Cc1ccccc1)N[*:1])[*:2]; Pheψ(R-CH(OH)CH2N)Pro = O=C([C@@H]1CCCN1C[C@@H](O)[C@H](Cc1ccccc1)N[*:1])[*:2]

A word on the Ki: it is a measure of affinity in units of concentration, obtained from inhibition or displacement. Read a low Ki as a stronger hold on the target.

This assay deals with Human immunodeficiency virus type 1 protease (Human immunodeficiency virus 1, UniProt Q72874).
Turning to `CC[C@@H](C)[C@@H]1NC(=O)[C@@H](NC[C@@H](O)[C@@H]2Cc3ccc(cc3)OCCCCC(=O)N[C@@H](C(C)C)C(=O)N2)Cc2ccc(cc2)OCCCNC1=O`, the Ki was found to be 3 nM.

`CC[C@H](C)[C@H](NC(=O)[C@@H]1CCCN1C[C@@H](O)[C@H]1Cc2ccc(cc2)OCC(=O)NCC(=O)N[C@@H](CC(N)=O)C(=O)N1)C(=O)N[C@H](C(N)=O)C(C)C` displayed a Ki of 200 nM.

For `CC[C@H](C)[C@H](NC(=O)[C@@H]1CCCN1C[C@H](O)[C@H]1Cc2ccc(cc2)OCC(=O)N[C@@H](Cc2ccc(O)cc2)C(=O)N[C@@H](CC(N)=O)C(=O)N1)C(=O)N[C@H](C(N)=O)C(C)C`, affinity was put at a Ki of 11 nM.

The compound `CC[C@H](C)[C@H](NC(=O)[C@@H]1CCCN1C[C@H](O)[C@H]1Cc2ccc(cc2)OCC(=O)NCC(=O)N[C@@H](CC(N)=O)C(=O)N1)C(=O)N[C@H](C(N)=O)C(C)C` returned a Ki of 11 nM.

`CC[C@H](C)[C@H](NC(=O)[C@@H]1CCCN1C[C@@H](O)[C@H]1Cc2ccc(cc2)OCC(=O)N[C@@H](Cc2ccc(O)cc2)C(=O)N[C@@H](CC(N)=O)C(=O)N1)C(=O)N[C@H](C(N)=O)C(C)C` returned a Ki of 165 nM.

With `CC[C@H](C)[C@H](NC(=O)[C@@H]1CCCN1C[C@H](O)[C@@H]1CSSC[C@@H](NC(C)=O)C(=O)NCC(=O)N[C@@H](CC(N)=O)C(=O)N1)C(=O)N[C@H](C(N)=O)C(C)C`, the Ki stood at 250 nM.

In turn, `CC[C@H](C)[C@H](NC(=O)[C@@H]1CCCN1C[C@@H](O)[C@@H]1CSSC[C@@H](NC(C)=O)C(=O)NCC(=O)N[C@@H](CC(N)=O)C(=O)N1)C(=O)N[C@H](C(N)=O)C(C)C` displayed a Ki of 36000 nM.

For `CC[C@H](C)[C@H](NC(=O)[C@@H]1CCCN1C[C@H](O)[C@H]1Cc2ccc(cc2)OCCCCC(=O)NC(CC(N)=O)C(=O)N1)C(=O)N[C@H](C(N)=O)C(C)C` (some centres not stated), the Ki amounted to 8 nM.

Take `CC[C@H](C)[C@H](NC(=O)[C@@H]1CCCN1C[C@@H](O)[C@H]1Cc2ccc(cc2)OCCCCC(=O)NC(CC(N)=O)C(=O)N1)C(=O)N[C@H](C(N)=O)C(C)C` (some centres not stated): the Ki is 74 nM.

In turn, `CC[C@H](C)[C@H](NC(=O)[C@@H]1CCCN1C[C@@H](O)[C@H]1Cc2ccc(cc2)OCCCC(=O)NC(CC(N)=O)C(=O)N1)C(N)=O` (some centres not stated) had a Ki of 2800 nM.

As for `CC[C@H](C)[C@H](NC(=O)[C@@H]1CCCN1C[C@H](O)[C@H]1Cc2ccc(cc2)OCCCC(=O)NC(CC(N)=O)C(=O)N1)C(N)=O` (some centres not stated), the Ki was determined as 250 nM.

Take `CC(C)[C@@H]1NC(=O)CCCCCOc2ccc(cc2)C[C@H]([C@H](O)CN2CCCC[C@H]2C(=O)NC(C)(C)C)NC1=O`: the affinity, expressed as Ki, was 50 nM.

Compound `CC(C)N(C(=O)[C@@H]1CCCN1C[C@@H](O)[C@H]1Cc2ccc(cc2)OCCCC(=O)NC(CC(N)=O)C(=O)N1)C(C)C` (some centres not stated) had a Ki of 31000 nM.

`CC(C)(C)NC(=O)[C@@H]1CCCN1C[C@H](O)[C@H]1Cc2ccc(cc2)OCCCC(=O)NC(CC(N)=O)C(=O)N1` (some centres not stated) had a Ki of 145 nM.

`CC(C)(C)NC(=O)[C@@H]1CCCN1C[C@@H](O)[C@H]1Cc2ccc(cc2)OCCCC(=O)NC(CC(N)=O)C(=O)N1` (some centres not stated) registered a Ki of 57 nM.

As to `CC(C)CN(CC(=O)NC(C)(C)C)C[C@@H](O)[C@H]1Cc2ccc(cc2)OCCCC(=O)N[C@@H](CC(N)=O)C(=O)N1`, the affinity, expressed as Ki, was 250 nM.

In turn, `CC(C)(C)NC(=O)CN(Cc1ccccc1)C[C@@H](O)[C@H]1Cc2ccc(cc2)OCCCC(=O)N[C@@H](CC(N)=O)C(=O)N1` gave a Ki of 440 nM.

With `CC(C)(C)NC(=O)CN(Cc1ccccc1)C[C@H](O)[C@H]1Cc2ccc(cc2)OCCCC(=O)N[C@@H](CC(N)=O)C(=O)N1`, the affinity corresponds to a Ki of 13600 nM.

`NC(=O)CC1NC(=O)CCCOc2ccc(cc2)C[C@H]([C@H](O)CN2CCC[C@H]2C(N)=O)NC1=O` (some centres not stated) displayed a Ki of 16000 nM.

`NC(=O)CC1NC(=O)CCCOc2ccc(cc2)C[C@H]([C@@H](O)CN2CCC[C@H]2C(N)=O)NC1=O` (some centres not stated) came in with a Ki of 36000 nM.

As for `CC(C)N(C(=O)[C@@H]1CCCN1C[C@H](O)[C@H]1Cc2ccc(cc2)OCCCC(=O)NC(CC(N)=O)C(=O)N1)C(C)C` (some centres not stated), affinity was put at a Ki of 86000 nM.

With `CC(C)CN(CC(=O)NC(C)(C)C)C[C@H](O)[C@H]1Cc2ccc(cc2)OCCCC(=O)N[C@@H](CC(N)=O)C(=O)N1`, the Ki was 380 nM.

`CC(C)[C@@H]1NC(=O)CCCCOc2ccc(cc2)C[C@H]([C@H](O)CN2CCCC[C@H]2C(=O)NC(C)(C)C)NC1=O` came in with a Ki of 17 nM.

Compound `CC[C@H](C)[C@H](NC(=O)[C@@H]1CCCN1C[C@H](O)[C@H](Cc1ccccc1)NC(=O)[C@H](CC(N)=O)NC(=O)[C@H](CC(C)C)NC(C)=O)C(=O)N[C@H](C(N)=O)C(C)C` (Ac-LN[Phe(ψ(S)CH(OH)CH2N)Pro]IV-NH2) registered a Ki of 3 nM.

Take `CC[C@H](C)[C@H](NC(=O)[C@@H]1CCCN1C[C@@H](O)[C@H](Cc1ccccc1)NC(=O)[C@H](CC(N)=O)NC(=O)[C@H](CC(C)C)NC(C)=O)C(=O)N[C@H](C(N)=O)C(C)C` (Ac-LN[Pheψ(R-CH(OH)CH2N)Pro]IV-NH2): the Ki came out at 18 nM.

For the compound `CC[C@H](C)[C@H](NC(=O)[C@@H]1CCCN1CC(O)[C@H]1Cc2ccc(cc2)OCC(=O)N[C@H](CCC(N)=O)C(=O)N[C@@H](CC(N)=O)C(=O)N1)C(=O)N[C@H](C(N)=O)C(C)C` (mixture of isomers), the Ki was 4 nM.

Consider `CC(C)(C)NC(=O)[C@H](Cc1ccccc1)NCC(O)[C@@H]1Cc2ccc(cc2)OCCCC(=O)NC(CC(N)=O)C(=O)N1` (mixture of isomers), for which the Ki worked out at 10300 nM.

Values taken from ChEMBL document CHEMBL1129084, “Structure-activity relationships for macrocyclic peptidomimetic inhibitors of HIV-1 protease” (Bioorg Med Chem Lett, 1996).
